According to patent publication US20240226026A1, “BRANCHED TAIL LIPID COMPOUNDS AND COMPOSITIONS FOR INTRACELLULAR DELIVERY OF THERAPEUTIC AGENTS” (ModernaTX, Inc., priority 2021, published 2024):

System: not listed separately
Assay: Encapsulation efficiency (% EE) of lipid nanoparticles
Type: physicochemical
Conditions: Table 2b; nanoparticles comprising the lipid
Description: For nanoparticle compositions including an RNA, a QUANT-IT™ RIBOGREEN® RNA assay (Invitrogen Corporation Carlsbad, CA) can be used to evaluate the encapsulation of an RNA by the nanoparticle composition. The samples are diluted to a concentration of approximately 5 μg/mL in a TE buffer solution (10 mM Tris-HCl, 1 mM EDTA, pH 7.5). 50 μL of the diluted samples are transferred to a polystyrene 96 well plate and either 50 μL of TE buffer or 50 μL of a 2% Triton X-100 solution is added to the wells. The plate is incubated at a temperature of 37° C. for 15 minutes. The RIBOGREEN® reagent is diluted 1:100 in TE buffer, and 100 μL of this solution is added to each well. The fluorescence intensity can be measured using a fluorescence plate reader (Wallac Victor 1420 Multilablel Counter; Perkin Elmer, Waltham, MA) at an excitation wavelength of, for example, about 480 nm and an emission wavelength of, for example, about 520 nm. The fluorescence values of the reagent blank are subtracted from that of each of the samples and the percentage of free RNA is determined by dividing the fluorescence intensity of the intact sample (without addition of Triton X-100) by the fluorescence value of the disrupted sample (caused by the addition of Triton X-100).
The efficiency of encapsulation of a therapeutic and/or prophylactic describes the amount of therapeutic and/or prophylactic that is encapsulated or otherwise associated with a lipid nanoparticle (e.g., an empty LNP or a loaded LNP) after preparation, relative to the initial amount provided. The encapsulation efficiency is desired to be high (e.g., close to 100%). The encapsulation efficiency may be measured, for example, by comparing the amount of therapeutic and/or prophylactic in a solution containing a loaded LNP before and after breaking up the loaded LNP with one or more organic solvents or detergents. Fluorescence may be used to measure the amount of free therapeutic and/or prophylactic (e.g., RNA) in a solution. For the loaded LNPs formulated with lipids of the disclosure, the encapsulation efficiency of a therapeutic and/or prophylactic is at least 50%, for example 50%, 55%, 60%, 65%, 70%, 75%, 80%, 85%, 90%, 91%, 92%, 93%, 94%, 95%, 96%, 97%, 98%, 99%, or 100%. In some embodiments, the encapsulation efficiency is at least 80%. In some embodiments, the encapsulation efficiency is at least 90%. In some embodiments, the encapsulation efficiency of the therapeutic and/or prophylactic agent is between 80% and 100%.
(§1) Lipid nanoparticles (e.g., empty LNPs or loaded LNPs) including DSPC as a phospholipid, cholesterol as a structural lipid, PL-II (e.g., PEG-1) as a PEG lipid, and a lipid according to Formula (I-1), (I), (I-A), (I-A1), (I-A2), (I-A3), or (I-A4) were prepared. In some embodiments, the lipid nanoparticles further included rhodamine-DOPE as a fluorescent lipid. Tables 2a, 2b, and 3 summarize the characteristics of the formulations.

% EE	Structure (SMILES)
98.0%	CCCCCCCCC(CCCCCCCC)OC(=O)CCCCCCCN(CCCCCCCC(=O)OCCC(CCCC)CCCC)CCCNc1ncccc1N [Compound 7]
91.9%	CCCCCC(CCCCC)CCOC(=O)CCCCCCCN(CCCCCCCC(=O)OCCC(CCCC)CCCC)CCCNc1noc(N)n1 [Compound 9]
18.2%	CCCCCC(CCCCC)CCOC(=O)CCCCCCCN(CCCCCCCC(=O)OCCC(CCCC)CCCC)CCCNC(=O)C1(C)CC1 [Compound 11]

Same assay, conditions: Table 3; nanoparticles comprising the lipid

% EE	Structure (SMILES)
99.0%	CCCCCCCCC(CCCCCCCC)OC(=O)CCCCCCCN(CCCCCCCC(=O)OCCC(CCCC)CCCC)CCCNc1ncccc1N [Compound 7]
91.2%	CCCCCC(CCCCC)CCOC(=O)CCCCCCCN(CCCCCCCC(=O)OCCC(CCCC)CCCC)CCCNc1noc(N)n1 [Compound 9]
34.3%	CCCCCC(CCCCC)CCOC(=O)CCCCCCCN(CCCCCCCC(=O)OCCC(CCCC)CCCC)CCCNC(=O)C1(C)CC1 [Compound 11]

System: CD-1 mice
Assay: Expression of hEPO induced by LNPs (mRNA encoding hEPO) administered to mice
Type: in vivo
Conditions: Table 4a, serum, 6 h after intravenous injection, ELLA Simple Plex Assay
Description: In some embodiments, hEPO concentrations were determined using an […] (ELLA) Simple Plex Assay (ProteinSimple) with a Human Erythroprotein cartridge. Standards for this assay are calibrated according to the 2. IRP WHO preparation. Nanoparticle compositions including mRNA are useful in the evaluation of the efficacy and usefulness of various formulations for the delivery of therapeutic and/or prophylactics. Higher levels of protein expression induced by administration of a composition including an mRNA will be indicative of higher mRNA translation and/or nanoparticle composition mRNA delivery efficiencies. As the non-RNA components are not thought to affect translational machineries themselves, a higher level of protein expression is likely indicative of a higher efficiency of delivery of the therapeutic and/or prophylactic by a given nanoparticle composition relative to other nanoparticle compositions or the absence thereof.
To assess potency of expression of lipids of the disclosure, the protein expression (hEPO) following administration of a nanoparticle comprising a lipid of the disclosure (e.g., a loaded LNP) to mice was measured.
Lipid nanoparticles (LNPs) including DSPC as a phospholipid, cholesterol as a structural lipid, PL-II (e.g., PEG-1) as a PEG lipid, a lipid according to Formula (I-1), (I), (I-A), (I-A1), (I-A2), (I-A3), or (I-A4), and an mRNA encoding hEPO were intravenously administered to CD-1 mice. The concentration of hEPO in serum was tested at 6 h after injection.

Structure (SMILES)	Avg. hEPO Concentration (mIU/mL)* ± Avg. SD
CCCCCCCCC(CCCCCCCC)OC(=O)CCCCCCCN(CCCCCCCC(=O)OCCC(CCCC)CCCC)CCCNc1ncccc1N [Compound 7]	1.04E+06 ± 2.04E+04 mIU/mL
CCCCCC(CCCCC)CCOC(=O)CCCCCCCN(CCCCCCCC(=O)OCCC(CCCC)CCCC)CCCNc1noc(N)n1 [Compound 9]	1.84E+06 ± 2.44E+04 mIU/mL
CCCCCC(CCCCC)CCOC(=O)CCCCCCCN(CCCCCCCC(=O)OCCC(CCCC)CCCC)CCCNC(=O)C1(C)CC1 [Compound 11]	4.15E+06 ± 8.08E+04 mIU/mL

System: not listed separately
Assay: Apparent pKa of lipid nanoparticles
Type: physicochemical
Conditions: Table 2b; 95% confidence interval

Apparent pKa 95% CI	Structure (SMILES)
6.654 to 6.751	CCCCCCCCC(CCCCCCCC)OC(=O)CCCCCCCN(CCCCCCCC(=O)OCCC(CCCC)CCCC)CCCNc1ncccc1N [Compound 7]
6.583 to 6.671	CCCCCC(CCCCC)CCOC(=O)CCCCCCCN(CCCCCCCC(=O)OCCC(CCCC)CCCC)CCCNc1noc(N)n1 [Compound 9]
6.906 to 6.961	CCCCCC(CCCCC)CCOC(=O)CCCCCCCN(CCCCCCCC(=O)OCCC(CCCC)CCCC)CCCNC(=O)C1(C)CC1 [Compound 11]

System: not listed separately
Assay: Particle size (diameter) and polydispersity index of lipid nanoparticles
Type: physicochemical
Conditions: Table 2b; nanoparticles comprising the lipid
Description: A Zetasizer Nano ZS (Malvern Instruments Ltd, Malvern, Worcestershire, UK) can be used to determine the particle size, the polydispersity index (PDI) and the zeta potential of the nanoparticle compositions in 1×PBS in determining particle size and 15 mM PBS in determining zeta potential.
Lipid nanoparticles (e.g., empty LNPs or loaded LNPs) may be characterized by a variety of methods. For example, microscopy (e.g., transmission electron microscopy or scanning electron microscopy) may be used to examine the morphology and size distribution of a nanoparticle composition. Dynamic light scattering or potentiometry (e.g., potentiometric titrations) may be used to measure zeta potentials. Dynamic light scattering may also be utilized to determine particle sizes. Instruments such as the Zetasizer Nano ZS (Malvern Instruments Ltd, Malvern, Worcestershire, UK) may also be used to measure multiple characteristics of a nanoparticle composition, such as particle size, polydispersity index, and zeta potential.
as §1

Diameter (nm)	PDI	Structure (SMILES)
76.9 nm	0.129	CCCCCCCCC(CCCCCCCC)OC(=O)CCCCCCCN(CCCCCCCC(=O)OCCC(CCCC)CCCC)CCCNc1ncccc1N [Compound 7]
96.9 nm	0.103	CCCCCC(CCCCC)CCOC(=O)CCCCCCCN(CCCCCCCC(=O)OCCC(CCCC)CCCC)CCCNc1noc(N)n1 [Compound 9]
200.1 nm	0.199	CCCCCC(CCCCC)CCOC(=O)CCCCCCCN(CCCCCCCC(=O)OCCC(CCCC)CCCC)CCCNC(=O)C1(C)CC1 [Compound 11]

Same assay, conditions: Table 3; nanoparticles comprising the lipid

Diameter (nm)	PDI	Structure (SMILES)
72.6 nm	0.133	CCCCCCCCC(CCCCCCCC)OC(=O)CCCCCCCN(CCCCCCCC(=O)OCCC(CCCC)CCCC)CCCNc1ncccc1N [Compound 7]
69.7 nm	0.165	CCCCCC(CCCCC)CCOC(=O)CCCCCCCN(CCCCCCCC(=O)OCCC(CCCC)CCCC)CCCNc1noc(N)n1 [Compound 9]
117 nm	0.262	CCCCCC(CCCCC)CCOC(=O)CCCCCCCN(CCCCCCCC(=O)OCCC(CCCC)CCCC)CCCNC(=O)C1(C)CC1 [Compound 11]

System: not listed separately
Assay: Lipid nanoparticle surface hydrophobicity by Generalized Polarization by Laurdan (N-GP)
Type: physicochemical
Conditions: Table 2b; nanoparticles comprising the lipid
From the text: Surface hydrophobicity of nanoparticles of the disclosure can be measured by Generalized Polarization by Laurdan (GPL). In this method, Laurdan, a fluorescent aminonaphthalene ketone lipid, is post-inserted into the nanoparticle surface and the fluorescence spectrum of Laurdan is collected to determine the normalized Generalized Polarization (N-GP). In some embodiments, nanoparticles formulated with lipids of the disclosure have a surface hydrophobicity expressed as N-GP of between about 0.5 and about 1.5. For example, in some embodiments, nanoparticles formulated with lipids of the disclosure have a surface hydrophobicity expressed as N-GP of about 0.5, about 0.6, about 0.7, about 0.8, about 0.9, about 1.0, about 1.1, about 1.2, about 1.3, about 1.4, or about 1.5. In some embodiments, nanoparticles formulated with lipids of the disclosure have a surface hydrophobicity expressed as N-GP of about 1.0 or about 1.1.

LNP surface hydrophobicity (N-GP*)	Structure (SMILES)
1.17	CCCCCCCCC(CCCCCCCC)OC(=O)CCCCCCCN(CCCCCCCC(=O)OCCC(CCCC)CCCC)CCCNc1ncccc1N [Compound 7]
0.98	CCCCCC(CCCCC)CCOC(=O)CCCCCCCN(CCCCCCCC(=O)OCCC(CCCC)CCCC)CCCNc1noc(N)n1 [Compound 9]
1.01	CCCCCC(CCCCC)CCOC(=O)CCCCCCCN(CCCCCCCC(=O)OCCC(CCCC)CCCC)CCCNC(=O)C1(C)CC1 [Compound 11]
